From EP0085843A1, “Antimycosic agent” (BAYER AG, priority 1982, dated 1983)

What was measured:
Candida = test: Antifungal in-vivo activity (oral) in mouse candidosis; design: species or system Mäuse vom Typ SPF-CF1; key to Wirkung (Ueberlebende am 6.Tag p.i.): +++++: = sehr gute Wirkung = 90 % Ueberlebende am 6.Tag p.i.; ++++: = gute Wirkung = 80 % Ueberlebende am 6.Tag p.i.; +++: = Wirkung = 60 % Ueberlebende am 6.Tag p.i.; ++: = schwache Wirkung = 40 % Ueberlebende am 6.Tag p.i.; +: = Spur Wirkung = unter 40% " " " "; k.W.: = keine Wirkung; details: for Wirkung (Ueberlebende am 6.Tag p.i.): 50 - 100 mg/kg one hour before and seven hours after i.v. infection; for Wirkung compared with known compounds (A), (B), (C), (D): mouse candidosis
Description: Mäuse vom Typ SPF-CF1 wurden intravenös mit 1 - 2 x 10^6 logarithmisch wachsenden Candida-Zellen, die in physiologischer Kochsalzlösung suspendiert werden, infiziert. Eine Stunde vor und sieben Stunden nach der Infektion werden die Tiere mit jeweils 50 - 100 mg/kg Körpergewicht der Präparate oral behandelt.
Unbehandelte Tiere starben 3 bis 6 Tage post infektionem. Die Ueberlebensrate am 6.Tag post infektionem betrug bei unbehandelten Kontrolltieren etwa 5 %.

[1] = system: Trichophyton mentagrophytes; test: In-vivo activity (local) in experimental guinea pig trichophytosis; design: species or system Meerschweinchen; key to Wirkung (Infektionszeichen): +++++: sehr gute Wirkung = keine Infektionszeichen am 12.-15.Tag p.i.; ++++: gute Wirkung = geringe Rötung, vereinzelt Schuppen; +++: Wirkung = Rötung, Schuppung, ohne Haarausfall; ++: schwache Wirkung = Rötung, Schuppung, Haarausfall; +: Spur Wirkung = flächiger Haarausfall, entzündliche Hautreaktion; details: for Wirkung (Infektionszeichen): 1x daily from day 3 p.i., 15%-ige Lösung in Dimethylsulfoxid : Glycerin = 1 : 4; for Wirkung: trichophytosis model
[2] = system: Dermatophyten, Schimmelpilze, Hefen; test: Antifungal in-vitro activity, serial dilution test, overall statement; format: cell-based
Description: Versuchsbeschreibung: • Die in-vitro-Prüfungen wurden im Reihenverdünnungstest mit Keiminokula von durchschnittlich 5 x 10^4 Keimen/ml Substrat durchgeführt. Als Nährmedium dienten • a) für Dermatophyten und Schimmelpilze: Sabouraud's milieu d'epreuve • b) für Hefen: • Fleischextrakt-Traubenzucker-Bouillon.
Die Bebrütungstemperatur betrug 20°C, die Bebrütungsdauer lag bei 24 bis 96 Stunden bei Hefen und 96 Stunden bei Dermatophyten und Schimmelpilzen.

## Cc1ccc(OCC(O)(Cn2cncn2)C(C)(C)C)cc1 (centres unmarked) [(A), reference compound]
Candida
  Wirkung (Ueberlebende am 6.Tag p.i.): k.W.

## Cc1cc(Cl)ccc1OCC(O)(Cn1cncn1)C(C)(C)C (centres unmarked) [(C), reference compound]
Candida
  Wirkung (Ueberlebende am 6.Tag p.i.): k.W.

## COC(COc1ccc(Cl)cc1C)(Cn1cncn1)C(C)(C)C (centres unmarked) [Beispiel 1, 2-(4-Chlor-2-methyl-phenoxymethyl)-3,3-dimethyl-2-methoxy-1-(1,2,4-triazol-1-yl)-butan]
Candida
  Wirkung (Ueberlebende am 6.Tag p.i.): +++ (= Wirkung = 60 % Ueberlebende am 6.Tag p.i.)
  Wirkung compared with known compounds (A), (B), (C), (D): bessere Wirkung
[1]
  Wirkung (Infektionszeichen): ++++
  Wirkung: gute Wirkung
[2]
  antimykotische Wirkung compared with known compounds (A), (B), (C), (D): bessere antimykotische Wirkung

## COC(COc1ccc(Cl)cc1)(Cn1cncn1)C(C)(C)C (centres unmarked) [Beispiel 2]
Candida
  Wirkung (Ueberlebende am 6.Tag p.i.): ++++ (= gute Wirkung = 80 % Ueberlebende am 6.Tag p.i.)
  Wirkung compared with known compounds (A), (B), (C), (D): bessere Wirkung
[1]
  Wirkung (Infektionszeichen): ++++
  Wirkung: gute Wirkung

## COC(COc1ccc(Cl)cc1Cl)(Cn1cncn1)C(C)(C)C (centres unmarked) [Beispiel 3]
Candida
  Wirkung (Ueberlebende am 6.Tag p.i.): +++ (= Wirkung = 60 % Ueberlebende am 6.Tag p.i.)
  Wirkung compared with known compounds (A), (B), (C), (D): bessere Wirkung
[1]
  Wirkung (Infektionszeichen): ++++
  Wirkung: gute Wirkung
[2]
  antimykotische Wirkung compared with known compounds (A), (B), (C), (D): bessere antimykotische Wirkung

## COC(CCc1ccc(Cl)cc1)(Cn1cncn1)C(C)(C)C (centres unmarked) [Beispiel 4]
Candida
  Wirkung (Ueberlebende am 6.Tag p.i.): +++++ (= sehr gute Wirkung = 90 % Ueberlebende am 6.Tag p.i.)
  Wirkung compared with known compounds (A), (B), (C), (D): bessere Wirkung
[1]
  Wirkung (Infektionszeichen): ++++
  Wirkung: gute Wirkung
[2]
  antimykotische Wirkung compared with known compounds (A), (B), (C), (D): bessere antimykotische Wirkung

## COC(CCc1ccc(F)cc1)(Cn1cncn1)C(C)(C)C (centres unmarked) [Beispiel 5]
Candida
  Wirkung (Ueberlebende am 6.Tag p.i.): ++++ (= gute Wirkung = 80 % Ueberlebende am 6.Tag p.i.)
  Wirkung compared with known compounds (A), (B), (C), (D): bessere Wirkung
[1]
  Wirkung (Infektionszeichen): ++++
  Wirkung: gute Wirkung
[2]
  antimykotische Wirkung compared with known compounds (A), (B), (C), (D): bessere antimykotische Wirkung
